Data reported in patent publication US20150335761A1, “COMPOSITIONS AND METHODS FOR CONTRACEPTION” (priority 2012, published 2015).

How the values were obtained:
Cathepsin B (CB) = Cathepsin B (CB) (Homo sapiens, UniProt P07858); test: in vitro release study of PADM in CB solution; type: biochemical; settings: 37° C., read-out: half-life of ADM release
Text: (§1) Activated CB cleaves the Phe-Lys dipeptide at the Lys-PABC bond. Then, the exposed PABC spacer spontaneously decarboxylates upon deacylation and free ADM molecules are released.

[1] = in vitro release study of PADM in human plasma; type: in vitro ADME; settings: over 6-7 h in human plasma
Text: as §1

COc1cccc2c1C(=O)c1c(O)c3c(c(O)c1C2=O)C[C@@](O)(C(=O)CO)C[C@@H]3O[C@H]1C[C@H](NC(=O)OCc2ccc(NC(=O)[C@H](CCCCN)NC(=O)[C@H](Cc3ccccc3)NC(C)=O)cc2)[C@H](O)[C@H](C)O1 [PADM, Ac-Phe-Lys-PABC-ADM]
half-life (Cathepsin B (CB)): 16 min | changes (ADM release) in human plasma [1]: no changes were observed
